This is an account of results in patent EP4810020A1, “NANOPARTICLE ADIPOSOME ENCAPSULATING HYDROPHOBIC SMALL-MOLECULE DRUG, PREPARATION METHOD THEREFOR, AND USE THEREOF” (WeCareLife Biotech Co., Ltd., priority 2023, dated 2025).

Like-named read-outs stand apart in the source and are kept apart here. Square brackets hold non-standard residues; d marks the D form. Peptide text beside a SMILES is read from it. * marks the point of attachment. Dolaproine = CO[C@@H]([C@@H]1CCCN1)[C@@H](C)C(=O)O; Dil = CC[C@H](C)[C@H](NC)[C@@H](CC(=O)O)OC; X1 = C[C@@H](N*)[C@@H](O)c1ccccc1; NMeV = CN[C@H](C(=O)O)C(C)C

For data set [1] the following is noted: cited from earlier work.
Data set [2] can be described thus: dissolution / appearance in PBS. On the procedure: Paclitaxel and the prepared paclitaxel adiposomes were dissolved in PBS, respectively.

In general, logP refers to the decadic logarithm of the partition coefficient of the neutral form, usually between octanol and water. As for `CC[C@@]1(O)C(=O)OCc2c1cc1n(c2=O)Cc2cc3ccccc3nc2-1` [Camptothecin], the logP in data set [1] was 1.9. Moreover, the “solubility / state in PBS” value in data set [2] (in PBS) is on record as “very low solubility in PBS”.
Regarding `C=CCc1ccc(O)c(-c2ccc(O)c(CC=C)c2)c1` [Honokiol], the “solubility / state in PBS” value in data set [2] is recorded as “very low solubility in PBS”.
Consider `CC[C@H](C)[C@@H]([C@@H](CC(=O)N1CCC[C@H]1[C@H](OC)[C@@H](C)C(=O)N[C@H](C)[C@@H](O)c1ccccc1)OC)N(C)C(=O)[C@@H](NC(=O)[C@@H](NC)C(C)C)C(C)C` [Monomethyl auristatin E] (H-[NMeV]V[Dil][Dolaproine]-X1), for which, in data set [1], the logP is 3.4. The “solubility / state in PBS” value in data set [2] (in PBS) is given as “very low solubility in PBS”.
As to `CC(=O)O[C@H]1C(=O)[C@@]2(C)[C@H]([C@H](OC(=O)c3ccccc3)[C@]3(O)C[C@H](OC(=O)[C@H](O)[C@@H](NC(=O)c4ccccc4)c4ccccc4)C(C)=C1C3(C)C)[C@]1(OC(C)=O)CO[C@@H]1C[C@@H]2O` [Paclitaxel], the “solubility / state in PBS” value in data set [2] (in PBS) was “very low solubility in PBS”.
